pKd: −log10 of the molar value.
Assays:
Transthyretin (WT-TTR) = biological target: T1, Transthyretin (WT-TTR) (Homo sapiens, UniProt P02766); test: crystal structure (soaked crystals); ANS displacement (apparent Kd); assay type: binding
T1 construct: WT-TTR homotetramer

[1] = biological target: T2, Transthyretin (L55P variant) (Homo sapiens, UniProt P02766, L75P); test: ANS displacement from the hormone binding site (apparent Kd)
T2 construct: gene TTR; L55P TTR homotetramer

pKd (Transthyretin (WT-TTR)): 5.85
pKd [1]: 5.77
Compound: Cc1ccc(Nc2c(F)cccc2Cl)c(CC(=O)O)c1 [LUM, lumiracoxib]

Source: publication PMC3634512, “Inhibition of Human Transthyretin Aggregation by Non-Steroidal Anti-Inflammatory Compounds: A Structural and Thermodynamic Analysis” (International Journal of Molecular Sciences, 2013)
